Assay results: publication PMC4376459, “CXCR3 antagonist VUF10085 binds to an intrahelical site distinct from that of the broad spectrum antagonist TAK-779” (British Journal of Pharmacology, 2015)
Where a chain is given by its changes, count along the chain named.

Key:
WT CXCR3 [1] = biological target: T1, WT CXCR3 (Homo sapiens, UniProt P49682); experiment: Chemotaxis assay, L1.2 transfectants migrating to CXCL11; type: cell-based
T1 construct: expressed in transfected cells; host or cells: murine pre-B cell line L1.2, transient transfection by electroporation
T1 sequence (P49682 1-368): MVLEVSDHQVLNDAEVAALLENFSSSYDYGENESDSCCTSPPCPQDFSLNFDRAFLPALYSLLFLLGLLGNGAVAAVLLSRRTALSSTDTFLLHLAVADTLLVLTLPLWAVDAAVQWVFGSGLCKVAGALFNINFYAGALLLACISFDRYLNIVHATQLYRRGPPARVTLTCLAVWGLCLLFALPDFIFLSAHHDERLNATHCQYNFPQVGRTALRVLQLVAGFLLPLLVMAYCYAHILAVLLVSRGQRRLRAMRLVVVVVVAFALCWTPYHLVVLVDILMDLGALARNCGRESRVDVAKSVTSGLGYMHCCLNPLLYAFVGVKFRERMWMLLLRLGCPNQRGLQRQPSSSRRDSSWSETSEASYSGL

CXCR3 Y60A = biological target: T2, CXCR3 Y60A (Homo sapiens, UniProt P49682, Y60A); experiment: as above; type: cell-based
T2 construct: expressed in transfected cells; host or cells: murine pre-B cell line L1.2, transient transfection
T2 sequence (P49682 1-368 Y60A): T1 sequence (P49682 1-368) with Y60A

CXCR3 F131A = biological target: T3, CXCR3 F131A (Homo sapiens, UniProt P49682, F131A); experiment: as above; type: cell-based
T3 construct: expressed in transfected cells; host or cells: murine pre-B cell line L1.2, transient transfection
T3 sequence (P49682 1-368 F131A): T1 sequence (P49682 1-368) with F131A

CXCR3 H202A (ECL2) = biological target: T4, CXCR3 H202A (ECL2) (Homo sapiens, UniProt P49682, H202A); experiment: as above; type: cell-based
T4 construct: expressed in transfected cells; host or cells: murine pre-B cell line L1.2, transient transfection
T4 sequence (P49682 1-368 H202A): T1 sequence (P49682 1-368) with H202A

CXCR3 I279A = biological target: T5, CXCR3 I279A (Homo sapiens, UniProt P49682, I279A); experiment: as above; type: cell-based
T5 construct: expressed in transfected cells; host or cells: murine pre-B cell line L1.2, transient transfection
T5 sequence (P49682 1-368 I279A): T1 sequence (P49682 1-368) with I279A

WT CXCR3 [2] = biological target: T1, WT CXCR3; experiment: Whole-cell 125I-CXCL11 binding assay, L1.2 transfectants; details: WT CXCR3 transfectants (Figure 1); read-out: IC50 for displacement of 125I-CXCL11
CXCR3 Y308A = biological target: T6, CXCR3 Y308A (Homo sapiens, UniProt P49682, Y308A); experiment: as above
T6 construct: expressed in transfected cells; host or cells: murine pre-B cell line L1.2, transient transfection
T6 sequence (P49682 1-368 Y308A): T1 sequence (P49682 1-368) with Y308A

[3] = 30 nM CXCL11, read-out: IC50 chemotaxis (mean ± SEM)

Row | Molecule | IC50 (WT CXCR3 [1]; WT CXCR3, 30 nM CXCL11, read-out: IC50 chemotaxis (mean ± SEM)) [µM] | IC50 (CXCR3 Y60A; [3]) [µM] | IC50 (CXCR3 F131A; [3]) [µM] | IC50 (CXCR3 H202A (ECL2); H202A (ECL2), 30 nM CXCL11, read-out: IC50 chemotaxis (mean ± SEM)) [µM] | increase in IC50 value, chemotaxis (CXCR3 H202A (ECL2); H202A versus WT, 30 nM CXCL11) | IC50 (CXCR3 I279A; [3]) [µM] | IC50 (WT CXCR3 [2]) [µM] | reduction in IC50 value, ligand binding (CXCR3 Y308A; Y308A relative to WT) | IC50 (CXCR3 Y308A; Y308A, 0.1 nM 125I-CXCL11, read-out: IC50 ligand binding (mean ± SEM)) [µM] | optimum concentration of bell-shaped chemotaxis response (WT CXCR3 [1]; WT CXCR3) [nM] | % of WT chemotaxis to 30 nM CXCL11 (mean ± SEM) (WT CXCR3 [1]; WT CXCR3, 30 nM CXCL11) [%] | % of WT chemotaxis to 30 nM CXCL11 (mean ± SEM) (CXCR3 Y60A) [%] | % of WT chemotaxis to 30 nM CXCL11 (mean ± SEM) (CXCR3 F131A) [%] | % of WT chemotaxis to 30 nM CXCL11 (mean ± SEM) (CXCR3 H202A (ECL2); H202A) [%] | % of WT chemotaxis to 30 nM CXCL11 (mean ± SEM) (CXCR3 I279A) [%]
1 | Cc1ccc(-c2ccc3c(c2)C=C(C(=O)Nc2ccc(C[N+](C)(C)C4CCOCC4)cc2)CCC3)cc1.[Cl-] [TAK-779, N,N-dimethyl-N-[4-[[[2-(4-methylphenyl)-6,7-dihydro-5H-benzocyclohepten-8-yl]-carbonyl]amino]benzyl] tetrahydro-2H-pyran-4-aminium chloride] | 15.8 ± 3.1 | 10.2 ± 4.62 | 15 ± 6.98 | 32.7 ± 14 | twofold | 10.5 ± 3.35 | 15.6 | twofold | 14.2 ± 3 | – | – | – | – | – | –
2 | CXCL11: recombinant human chemokine, CXCR3 agonist, purchased from PeproTech | – | – | – | – | – | – | – | – | – | 30 | 100 ± 4.32 | 55.4 ± 16.4 | 53.7 ± 5.6 | 66.0 ± 34.8 | 51.3 ± 6.2
